The text below walks through data of US10800758B2, “Pyrimidine compound” (OTSUKA PHARMACEUTICAL CO., LTD., priority 2017, dated 2020).

The first test deals with ICR mice. Description: Maximal electroshock seizure (MES) model. The format is in vivo. As to conditions: Mus musculus; male ICR mice, 30 mg/kg oral, electrical stimulation (30 mA, 100 Hz, 0.2 second) 1 hour after administration; read-out: rate of seizure suppression (tonic hindlimb extension seizure). As for the experimental part: This test is performed to evaluate the anticonvulsant activity of the compound. The mouse model used in this test is a phenotype model of generalized tonic-clonic seizure and secondary generalized partial seizure. This test was performed in accordance with the report of AJ Hill et al (Br J Pharmacol. 2012 December; 167(8): 1629-42. Cannabidivarin is anticonvulsant in mouse and rat, Hill A J, et al.).
The test compound was suspended in 5% gum arabic/distilled water (w/v), and administered by forced oral administration to male ICR mice (Japan SLC, Inc., 5 to 6 weeks old, 8 per group) at a dose of 30 mg/kg. After one hour of the oral administration of the test compound, the mice were stimulated by an application of electrical current (30 mA, 100 Hz, 0.2 second) through auricular electrodes using an electroconvulsive device (UGO BASILE SRL). Then, the incidence of tonic hindlimb extension seizure was recorded. In this test, tonic hindlimb extension seizures were induced in all mice of the solvent administration group, but the rate of seizure suppression was 75% or more with the example compounds 1, 2, 3, 5, 8, 10, 12, 13, 14, 16, 18, 22, 26, 28, 30, 31, 38, 42, 47, 48 and 54, and the suppression rate was 50% or more with the example compounds 4, 6, 9, 11, 23, 41 and 45.
With `O=C1CCN(c2cnc(Oc3c(F)cccc3F)nc2)C(=O)N1` [Example 13], the responders at 30 mg/kg is at least 75%.
Take `Cc1cccc(Oc2ncc(N3CCC(=O)NC3=O)cn2)c1` [Example 22]: the responders at 30 mg/kg was at least 75%.
On to `O=C1CCN(c2cnc(Oc3cc(F)cc(F)c3)nc2)C(=O)N1` [Example 14], for which the responders at 30 mg/kg was at least 75%.

Another test concerns DBA/2 mice. As to the kind of experiment: Audiogenic seizure model. The format is in vivo. As to conditions: Mus musculus; male and female DBA/2 mice, 30 mg/kg oral, auditory stimulation 1 hour after administration; read-out: Seizure suppression rate (%). As for the experimental part: The animal model used in this test is a phenotype model for partial seizure (including secondary generalized seizure) and generalized tonic-clonic seizure, and has high clinical predictability. This test was performed in accordance with the report of De Sarro et al (Br J Pharmacol. 1988 February; 93(2): 247-56. Anticonvulsant effects of some calcium entry blockers in DBA/2 mice. De Sarro G B, Meldrum B S, Nistico G.).
In this test example, the example compounds shown in Table 3 below were used as test compounds. The following compound (compound of Example 5 of WO 2004/009559), which is the most similar compound when the substituent position is taken into consideration, was used as a comparative example compound.
The test compounds were suspended in 5% gum arabic/distilled water (w/v), and administered by forced oral administration to male and female DBA/2 mice (Japan SLC, Inc., 3 weeks old, 8 per group) at a dose of 30 mg/kg. After one hour of the oral administration of the test compound, each mouse was placed in a transparent acrylic cylinder 30 cm high and 23 cm in diameter, and 30 seconds were allowed for habituation. Then, they were exposed to auditory stimulation (12.6 kHz, 100-110 dB) for 1 minute or until a tonic seizure occurred.
The seizure response was assessed using the following scale, 0: no seizure, 1: wild running, 2: clonic seizure, 3: tonic seizure and 4: respiratory arrest. The maximum response was recorded as the seizure severity score.
The seizure suppression rate for each compound administration group was calculated according to the following formula.
Consider `O=C1CCN(c2cnc(Oc3c(F)cccc3F)nc2)C(=O)N1` [Example 13], for which the inhibition in vivo at 30 mg/kg was determined as 100%.
In the case of `Cc1cccc(Oc2ncc(N3CCC(=O)NC3=O)cn2)c1` [Example 22], the inhibition in vivo at 30 mg/kg was found to be 100%.
On to `O=C1CCN(c2cnc(Oc3cc(F)cc(F)c3)nc2)C(=O)N1` [Example 14], for which the inhibition in vivo at 30 mg/kg is 92%.

The next test deals with ICR mice. Description: Subcutaneous pentylenetetrazole (scPTZ) model. The class given is in vivo. As to conditions: Mus musculus; male ICR mice, 30 mg/kg oral, 85 mg/kg pentylenetetrazole s.c. after 1 hour, evaluated for 30 minutes; read-out: rate of suppression against clonic convulsions. The protocol: This test is performed to evaluate the anticonvulsant activity of the compound as in Test Example 2. Unlike the phenotype of Test Example 2, the animal model used in this test is a phenotype model of generalized absence seizure and myoclonic seizure.
The test compound was suspended in 5% gum arabic/distilled water (w/v), and administered by forced oral administration to male ICR mice (Japan SLC, Inc., 5 to 6 weeks old, 10 per group) at a dose of 30 mg/kg. After 1 hour, 85 mg/kg of pentylenetetrazole dissolved in saline was administered subcutaneously, and the occurrence of clonic convulsions was evaluated for 30 minutes.
For `O=C1CCN(c2cnc(Oc3c(F)cccc3F)nc2)C(=O)N1` [Example 13], the responders at 30 mg/kg was at least 75%.
On to `Cc1cccc(Oc2ncc(N3CCC(=O)NC3=O)cn2)c1` [Example 22], for which the responders at 30 mg/kg is at least 75%.
On to `O=C1CCN(c2cnc(Oc3cc(F)cc(F)c3)nc2)C(=O)N1` [Example 14], for which the responders at 30 mg/kg is at least 75%.
